Consider 16 compounds from patent US12054494B2, “Compound with anticancer activity” (KYOWA KIRIN CO., LTD., priority 2018, dated 2024).

This assay relates to SU-DHL-4 cells. Description: Inhibitory effect on cell viability (Cell Counting Kit-8). Type of assay: cell-based. The conditions noted are these: Homo sapiens, 72 hours culture with test compound, concentration showing 90% inhibition rate of cell viability. As for the experimental part:
Inhibitiory Effect on Cell Viability
SU-DHL-4 cells (Code No. ACC 495, Deutsche Sammlung von Mikroorganismen and Zellkulturen GmbH) were cultured at 37° C. using a carbon dioxide incubator (95% air, 5% CO2) in RPMI1640 medium (Code No. 11875-093, Thermo Fisher Scientific) in which inactivated fetal bovine serum (FBS: Code No. 10099-148, Thermo Fisher Scientific) in an amount to give a final concentration of 10 vol % and penicillin/streptomycin solution (PS: Code No. 15140-122, Thermo Fisher Scientific) in an amount to give a final concentration of 1 vol % were added. The cells were passaged twice a week at a volume of 20-40 mL so as to maintain a cell concentration of 1×10^6 cells/mL or less.
The cultured SU-DHL-4 cells were seeded at 2000 cells/well in a transparent 384-well plate (Code No. 781182, Greiner bio-one). After seeding, the cells were precultured at 37° C. in a carbon dioxide gas incubator for 18 to 25 hours. Next, 1, 0.1 or 0.01 mmol/L DMSO solution of the test compound was prepared and a 9-step dilution series were prepared so that the concentration will be 200 times the final concentration in the RPMI1640 medium containing the above FBS and PS, and 1/200 volume of the dilution series were added to each well. At this time, the final concentration of DMSO was adjusted to be 0.1 vol %. After adding the test compound, the cells were cultured at 37° C. in a carbon dioxide gas incubator for 72 hours. Next, 0.020 mL of Cell Counting Kit-8 (Code No. CK04, DOJINDO) solution diluted 2-fold or 4-fold with phosphate buffered saline (PBS) was added to each well. Color reaction was carried out in a carbon dioxide gas incubator at 37° C. for 2 to 3 hours, and the absorbance at a wavelength of 450 nm was measured using SpectraMax 340PC (Molecular Devices). The inhibition rate of cell viability was calculated by the following formula, and the concentration of the test compound (IC90 value) showing a 90% inhibition rate of cell viability was calculated. Inhibition rate of cell viability (%)=100−(A−B)/(C−B)×100 • A: Absorbance of a well containing test compound • B: Absorbance of a well without addition of cells • C: Absorbance of a well without addition of test compound
On the technique in general: Tetrazolium dyes change colour on reduction, which living cells bring about.

Structures are written as SMILES.

For the compound `CCC(=O)N1c2ccccc2[C@H](Nc2ccc(C(=O)NC3CCN(C(=O)c4ccc(N[C@@H]5C[C@H](C)N(C(=O)CC)c6ccccc65)cc4)CC3)cc2)C[C@@H]1C` (relative stereo) [Compound 1c, 4-{[(2S*,4R*)-2-Methyl-1-propionyl-1,2,3,4-tetrahydroquinolin-4-yl]amino}-N-[1-(4-{[(2S*,4R*)-2-methyl-1-propionyl-1,2,3,4-tetrahydroquinolin-4-yl]amino}benzoyl)piperidin-4-yl]benzamide], the IC90 came out at 7.85 nM.
The compound `CCC(=O)N1c2ccccc2[C@H](Nc2ccc(C(=O)NC3CN(C(=O)c4ccc(N[C@@H]5C[C@H](C)N(C(=O)CC)c6ccccc65)cc4)C3)cc2)C[C@@H]1C` (relative stereo) [Compound 1g, 4-{[(2S*,4R*)-2-Methyl-1-propionyl-1,2,3,4-tetrahydroquinolin-4-yl]amino}-N-[1-(4-{[(2S*,4R*)-2-methyl-1-propionyl-1,2,3,4-tetrahydroquinolin-4-yl]amino}benzoyl)azetidin-3-yl]benzamide] returned an IC90 of 10.6 nM. This IC90 and that of the compound before are within 1.5-fold of each other.
Compound `CCC(=O)N1c2ccccc2[C@H](Nc2ccc(NC(=O)CNC(=O)c3ccc(N[C@@H]4C[C@H](C)N(C(=O)CC)c5ccccc54)cc3)cc2)C[C@@H]1C` (relative stereo) [Compound 2a, 4-{[(2S*,4R*)-2-Methyl-1-propionyl-1,2,3,4-tetrahydroquinolin-4-yl]amino}-N-{2-[(4-{[(2S*,4R*)-2-methyl-1-propionyl-1,2,3,4-tetrahydroquinolin-4-yl]amino}phenyl)amino]-2-oxoethyl}benzamide] gave an IC90 of 2.12 nM.
For the compound `CCC(=O)N1c2ccccc2[C@H](Nc2ccc(NC(=O)[C@@H](C)NC(=O)c3ccc(N[C@@H]4C[C@H](C)N(C(=O)CC)c5ccccc54)cc3)cc2)C[C@@H]1C` (relative stereo) [Compound 2c, 4-{[(2S,4R)-2-Methyl-1-propionyl-1,2,3,4-tetrahydroquinolin-4-yl]amino}-N-{(R)-1-[(4-{[(2S*,4R*)-2-methyl-1-propionyl-1,2,3,4-tetrahydroquinolin-4-yl]amino}phenyl)amino]-1-oxopropan-2-yl}benzamide], the 90% effect level (IC90) was put at 29.1 nM. Compared with the last compound, the IC90 is about 14-fold higher.
The figure for `CCC(=O)N1c2ccccc2[C@H](Nc2ccc(NC(=O)[C@H](C)NC(=O)c3ccc(N[C@@H]4C[C@H](C)N(C(=O)CC)c5ccccc54)cc3)cc2)C[C@@H]1C` (relative stereo) [Compound 2d, 4-{[(2S,4R)-2-Methyl-1-propionyl-1,2,3,4-tetrahydroquinolin-4-yl]amino}-N-{(S)-1-[(4-{[(2S*,4R*)-2-methyl-1-propionyl-1,2,3,4-tetrahydroquinolin-4-yl]amino}phenyl)amino]-1-oxopropan-2-yl}benzamide] is 26.6 nM.
On to `CCC(=O)N1c2ccccc2[C@H](Nc2ccc(NC(=O)[C@@H](NC(=O)c3ccc(N[C@@H]4C[C@H](C)N(C(=O)CC)c5ccccc54)cc3)C(C)C)cc2)C[C@@H]1C` (relative stereo) [Compound 2e, N-{(S)-3-Methyl-1-[(4-{[(2S*,4R*)-2-methyl-1-propionyl-1,2,3,4-tetrahydroquinolin-4-yl]amino}phenyl)amino]-1-oxobutan-2-yl}-4-{[(2S,4R)-2-methyl-1-propionyl-1,2,3,4-tetrahydroquinolin-4-yl]amino}benzamide], for which the IC90 was found to be 16.3 nM.
`CCC(=O)N1c2ccccc2[C@H](Nc2ccc(NC(=O)CCNC(=O)c3ccc(N[C@@H]4C[C@H](C)N(C(=O)CC)c5ccccc54)cc3)cc2)C[C@@H]1C` (relative stereo) [Compound 2f, 4-{[(2S,4R)-2-Methyl-1-propionyl-1,2,3,4-tetrahydroquinolin-4-yl]amino}-N-{3-[(4-{[(2S*,4R*)-2-methyl-1-propionyl-1,2,3,4-tetra hydroquinolin-4-yl]amino}phenyl)amino]-3-oxopropyl}benzamide] returned an IC90 of 0.23 nM. This IC90 is about 71-fold lower than that of the compound before.
`CCC(=O)N1c2ccccc2[C@H](Nc2ccc(NC(=O)C3CCN(C(=O)c4ccc(N[C@@H]5C[C@H](C)N(C(=O)CC)c6ccccc65)cc4)CC3)cc2)C[C@@H]1C` (relative stereo) [Compound 2g, 1-(4-{[(2S,4R)-2-Methyl-1-propionyl-1,2,3,4-tetrahydroquinolin-4-yl]amino}benzoyl)-N-(4-{[(2S*,4R*)-2-methyl-1-propionyl-1,2,3,4-tetrahydroquinolin-4-yl]amino}phenyl)piperidine-4-carboxamide]: the 90% effect level (IC90) was put at 0.63 nM.
Turning to `CCC(=O)N1c2ccccc2[C@H](Nc2ccc(NC(=O)C3CN(C(=O)c4ccc(N[C@@H]5C[C@H](C)N(C(=O)CC)c6ccccc65)cc4)C3)cc2)C[C@@H]1C` (relative stereo) [Compound 2h, 1-(4-{[(2S,4R)-2-Methyl-1-propionyl-1,2,3,4-tetrahydroquinolin-4-yl]amino}benzoyl)-N-(4-{[(2S*,4R*)-2-methyl-1-propionyl-1,2,3,4-tetrahydroquinolin-4-yl]amino}phenyl)azetidine-3-carboxamide], it took 0.03 nM to reach the 90% level (IC90).
With `CCC(=O)N1c2ccccc2[C@H](Nc2ccc(NC(=O)[C@@H]3CCN(C(=O)c4ccc(N[C@@H]5C[C@H](C)N(C(=O)CC)c6ccccc65)cc4)C3)cc2)C[C@@H]1C` (relative stereo) [Compound 2i, (R)-1-(4-{[(2S,4R)-2-Methyl-1-propionyl-1,2,3,4-tetrahydroquinolin-4-yl]amino}benzoyl)-N-(4-{[(2S*,4R*)-2-methyl-1-propionyl-1,2,3,4-tetrahydroquinolin-4-yl]amino}phenyl)pyrrolidine-3-carboxamide], the 90% effect level (IC90) was put at 1.84 nM. This IC90 is about 61-fold higher than that of the compound before.
As for `CCC(=O)N1c2ccccc2[C@H](Nc2ccc(NC(=O)CC(C)CC(=O)Nc3ccc(N[C@@H]4C[C@H](C)N(C(=O)CC)c5ccccc54)cc3)cc2)C[C@@H]1C` (relative stereo) [Compound 4b, 3-Methyl-N^1,N^5-bis(4-{[(2S*,4R*)-2-methyl-1-propionyl-1,2,3,4-tetrahydroquinolin-4-yl]amino}phenyl)pentanediamide], the IC90 worked out at 5.87 nM. Against the preceding compound, the IC90 is about 3.2-fold higher.
Consider `CCC(=O)N1c2ccccc2[C@H](Nc2ccc(NS(=O)(=O)c3cccc(NC(=O)c4ccc(N[C@@H]5C[C@H](C)N(C(=O)CC)c6ccccc65)cc4)c3)cc2)C[C@@H]1C` (relative stereo) [Compound 4c, 4-{[(2S,4R)-2-Methyl-1-propionyl-1,2,3,4-tetrahydroquinolin-4-yl]amino}-N-{3-[N-(4-{[(2S*,4R*)-2-methyl-1-propionyl-1,2,3,4-tetrahydroquinolin-4-yl]amino}phenyl)sulfamoyl]phenyl}benzamide], for which the 90% effect level (IC90) was put at 4.03 nM.
On to `CCC(=O)N1c2ccccc2[C@H](Nc2ccc(NC(=O)CCSc3ccc(N[C@@H]4C[C@H](C)N(C(=O)CC)c5ccccc54)cc3)cc2)C[C@@H]1C` (relative stereo) [Compound 4e, N-(4-{[(2S*,4R*)-2-Methyl-1-propionyl-1,2,3,4-tetrahydroquinolin-4-yl]amino}phenyl)-3-[(4-{[(2S,4R)-2-methyl-1-propionyl-1,2,3,4-tetrahydroquinolin-4-yl]amino}phenyl)thio]propanamide], for which it took 0.34 nM to reach the 90% level (IC90).
Compound `CCC(=O)N1c2ccccc2[C@H](Nc2ccc(NC(=O)Cc3cn(-c4ccc(N[C@@H]5C[C@H](C)N(C(=O)CC)c6ccccc65)cc4)nn3)cc2)C[C@@H]1C` (relative stereo) [Compound 6i, N-(4-(((2S*,4R*)-2-Methyl-1-propionyl-1,2,3,4-tetrahydroquinolin-4-yl)amino)phenyl)-2-(1-(4-(((2S*,4R*)-2-methyl-1-propionyl-1,2,3,4-tetrahydroquinolin-4-yl)amino)phenyl)-1H-1,2,3-triazol-4-yl)acetamide] showed an IC90 of 0.11 nM.
Consider `CCC(=O)N1c2ccccc2[C@H](Nc2ccc(NC(=O)NCCNC(=O)c3ccc(N[C@@H]4C[C@H](C)N(C(=O)CC)c5ccccc54)cc3)cc2)C[C@@H]1C` (relative stereo) [Compound 6l, 4-(((2S,4R)-2-Methyl-1-propionyl-1,2,3,4-tetrahydroquinolin-4-yl)amino)-N-(2-(3-(4-(((2S*,4R*)-2-methyl-1-propionyl-1,2,3,4-tetrahydroquinolin-4-yl)amino)phenyl)ureido)ethyl)benzamide], for which it took 0.35 nM to reach the 90% level (IC90). Compared with the last compound, the IC90 is about 3.2-fold higher.
Compound `CCC(=O)N1c2ccccc2[C@H](Nc2ccc(NC(=O)N3CCN(C(=O)c4ccc(N[C@@H]5C[C@H](C)N(C(=O)CC)c6ccccc65)cc4)CC3)cc2)C[C@@H]1C` (relative stereo) [Compound 6m, 4-(4-(((2S,4R)-2-Methyl-1-propionyl-1,2,3,4-tetrahydroquinolin-4-yl)amino)benzoyl)-N-(4-(((2S*,4R*)-2-methyl-1-propionyl-1,2,3,4-tetrahydroquinolin-4-yl)amino)phenyl)piperazine-1-carboxamide] had an IC90 of 0.12 nM.

As usually defined, the IC90 is the point of the concentration-response curve where the effect stands at 90%. Read a low IC90 as greater potency.
